Source: patent publication US8691852B2, “Amino nicotinic and isonicotinic acid derivatives as DHODH inhibitors” (Amirall, S.A., priority 2006, dated 2014)

Columns and labels:
[1] = molecular target: human DHODH (Homo sapiens (Human), UniProt Q02127); test: Inhibition of human DHODH activity assay (DCIP chromogen reduction); conditions: read-out: hDHODH IC50; human enzyme extract, 200 μM CoQD, 100 μM L-DHO, 120 μM DCIP, 10 min room temperature, absorbance 600 nm
Protocol: DHODH activity and its inhibition were studied using a chromogen reduction assay with DCIP (2,6-dichlorophenol-indophenol).
Enzyme extracts (8 μl, ˜1.5 μg of human protein) were incubated in 96-well plates. The assay mixture (200 μl) contained 200 μM CoQD, 100 μM L-DHO, 120 μM DCIP in the assay buffer (100 mM HEPES pH 8.0, 150 mM NaCl, 10% Glicerol, 0.05% Triton X-100) and 2 μl of test compound. The compounds were dissolved in DMSO at a stock concentration of 1 mM, and tested at different concentrations varying from 10 μM to 1 μM to calculate an IC50 (concentration of inhibitor required for 50% of inhibition).
The reaction was initiated by adding the enzyme and then incubated for 10 min at room temperature before measuring DCIP reduction by counting a decrease in absorbance at 600 nm using standard instrumentation (Spectramax).
All reactions were carried out in duplicate and graphs, determining IC50 values for each compound, were plotted using the ABase software.

[2] = system: HIV replication; conditions: at concentration that can be obtained with conventional dosing; cited from earlier work

Chain of human DHODH (Q02127 whole entry): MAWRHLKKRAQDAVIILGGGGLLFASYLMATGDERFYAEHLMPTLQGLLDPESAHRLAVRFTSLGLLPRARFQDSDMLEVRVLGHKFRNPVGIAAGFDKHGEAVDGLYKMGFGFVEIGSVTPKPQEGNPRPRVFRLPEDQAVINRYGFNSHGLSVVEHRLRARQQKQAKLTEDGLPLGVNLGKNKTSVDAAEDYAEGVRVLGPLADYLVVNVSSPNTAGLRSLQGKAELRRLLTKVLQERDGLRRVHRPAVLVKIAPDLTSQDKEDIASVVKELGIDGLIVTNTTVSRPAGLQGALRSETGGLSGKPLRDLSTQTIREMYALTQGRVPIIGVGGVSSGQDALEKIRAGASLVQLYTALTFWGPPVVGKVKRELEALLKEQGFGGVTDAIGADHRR

| SMILES | IC50 [1] | reduces HIV replication [2] |
| --- | --- | --- |
| Cc1c(-c2ccccc2Cl)cc(F)c(Nc2ncccc2C(=O)O)c1F [Example 57, 2-(2′-chloro-3,5-difluoro-2-methylbiphenyl-4-ylamino)nicotinic acid] | 0.004 µM |  |
| COc1cccc(-c2ccc(Nc3ncccc3C(=O)O)c(Cl)c2)c1 [Example 13, 2-(3-Chloro-3′-methoxybiphenyl-4-ylamino)nicotinic acid] | 0.15 µM |  |
| COc1cccc(-c2ccc(Nc3ncc(C4CC4)cc3C(=O)O)c(F)c2)c1 [Example 34, 5-Cyclopropyl-2-(3-fluoro-3′-methoxybiphenyl-4-ylamino)nicotinic acid] | 0.033 µM |  |
| Cc1ccccc1-c1cc(F)c(Nc2ncccc2C(=O)O)c(F)c1 [Example 61, 2-(3,5-difluoro-2′-methylbiphenyl-4-ylamino)nicotinic acid] | 0.011 µM |  |
| O=C(O)c1cccnc1Nc1c(F)cc(-c2cccc(OC3CCC3)c2)cc1F [Example 17, 2-(3′-Cyclobutoxy-3,5-difluorobiphenyl-4-ylamino)nicotinic acid] | 0.09 µM |  |
| O=C(O)c1ccncc1Nc1ccc(-c2cccc(OC(F)(F)F)c2)cc1F [Example 24, Lithium 3-(3-fluoro-3′-(trifluoromethoxy)biphenyl-4-ylamino)isonicotinate] | 0.2 µM |  |
| O=C(O)c1cccnc1Nc1c(F)cc(-c2cccc(OC3CC3)c2)cc1F [Example 47, 2-(3′-cyclopropoxy-3,5-difluorobiphenyl-4-ylamino)nicotinic acid] | 0.017 µM |  |
| CCOc1cccc(-c2ccc(Nc3cnccc3C(=O)O)c(F)c2)c1 [Example 21, Lithium 3-(3′-ethoxy-3-fluorobiphenyl-4-ylamino)isonicotinate] | 0.019 µM |  |
| O=C(O)c1cc(C2CC2)cnc1Nc1c(F)cc(-c2ccccc2Cl)cc1F [Example 54, 2-(2′-chloro-3,5-difluorobiphenyl-4-ylamino)-5-cyclopropylnicotinic acid] | 0.005 µM |  |
| Cc1c(-c2cccc(OC(F)(F)F)c2)cc(F)c(Nc2ncccc2C(=O)O)c1F [Example 56, 2-(3,5-difluoro-2-methyl-3′-(trifluoromethoxy)biphenyl-4-ylamino)nicotinic acid] | 0.006 µM |  |
| COc1cccc(-c2cc(F)c(Nc3ncccc3C(=O)O)cc2C)c1 [Example 37, 2-(5-Fluoro-3′-methoxy-2-methylbiphenyl-4-ylamino)nicotinic acid] | 0.099 µM |  |
| CCOc1cccc(-c2ccc(Nc3ncccc3C(=O)O)c(F)c2)c1 [Example 2, 2-(3′-Ethoxy-3-fluorobiphenyl-4-ylamino)nicotinic acid] | 0.2 µM |  |
| COc1cccc(-c2cc(F)c(Nc3ncccc3C(=O)O)cc2F)c1 [Example 6, 2-(2,5-Difluoro-3′-methoxybiphenyl-4-ylamino)nicotinic acid] | 0.088 µM |  |
| CCc1cnc(Nc2c(F)cc(-c3cccc(OC)c3)cc2F)c(C(=O)O)c1 [Example 40, 2-(3,5-difluoro-3′-methoxybiphenyl-4-ylamino)-5-ethylnicotinic acid] | 0.012 µM |  |
| O=C(O)c1cc(Cl)cnc1Nc1c(F)cc(-c2ccccc2)cc1F [Example 58, 5-chloro-2-(3,5-difluorobiphenyl-4-ylamino)nicotinic acid] | 0.008 µM |  |
| COc1cccc(-c2c(F)c(F)c(Nc3ncccc3C(=O)O)c(F)c2F)c1 [Example 60, 2-(2,3,5,6-tetrafluoro-3′-methoxybiphenyl-4-ylamino)nicotinic acid] | 0.003 µM |  |
| Cc1c(-c2ccccc2)cc(F)c(Nc2ncccc2C(=O)O)c1F [Example 48, 2-(3,5-difluoro-2-methylbiphenyl-4-ylamino)nicotinic acid] | 0.005 µM |  |
| O=C(O)c1cc(C2CC2)cnc1Nc1c(F)cc(-c2cccc(OC(F)(F)F)c2)cc1F [Example 52, 5-cyclopropyl-2-(3,5-difluoro-3′-(trifluoromethoxy)biphenyl-4-ylamino)nicotinic acid] | 0.004 µM |  |
| Cc1cnc(Nc2ccc(-c3cccc(OC(F)(F)F)c3)cc2F)c(C(=O)O)c1 [Example 33, 2-(3-Fluoro-3′-(trifluoromethoxy)biphenyl-4-ylamino)-5-methylnicotinic acid] | 0.11 µM |  |
| CCOc1cccc(-c2cc(F)c(Nc3ncc(C4CC4)cc3C(=O)O)cc2F)c1 [Example 42, 5-cyclopropyl-2-(3′-ethoxy-2,5-difluorobiphenyl-4-ylamino)nicotinic acid] | 0.023 µM |  |
| COc1cccc(-c2ccc(Nc3cnccc3C(=O)O)c(OC(F)(F)F)c2)c1 [Example 23, Lithium 3-(3′-methoxy-3-(trifluoromethoxy)biphenyl-4-ylamino)isonicotinate] | 0.014 µM |  |
| O=C(O)c1cc(C2CC2)cnc1Nc1c(F)cc(-c2cccc(OC3CC3)c2)cc1F [Example 50, 2-(3′-cyclopropoxy-3,5-difluorobiphenyl-4-ylamino)-5-cyclopropylnicotinic acid] | 0.006 µM |  |
| CCOc1cccc(-c2cc(F)c(Nc3ncccc3C(=O)O)c(F)c2)c1 [Example 19, 2-(3′-Ethoxy-3,5-difluorobiphenyl-4-ylamino)nicotinic acid] | 0.019 µM |  |
| COc1cccc(-c2cc(F)c(Nc3ncccc3C(=O)O)c(F)c2)c1F [Example 45, 2-(2′,3,5-trifluoro-3′-methoxybiphenyl-4-ylamino)nicotinic acid] | 0.053 µM |  |
| Cc1oncc1C(=O)Nc1ccc(C(F)(F)F)cc1 [Leflunomide] |  | about 75% |
